“Also recorded” adds a separate entry of the source. Where two headings read alike, the source gives them in different places.
Legend:
[1] = tested on: AMPK in C-26 colon adenocarcinoma cells; test: Western blot of AMPK phosphorylation in C-26 cells; format: cell-based; details: dose- and time-dependent, 10% FBS-containing medium
Description: (§1) Cells and cell culture. THP-1 monocytic cells were purchased from the American Type Culture Collection (Rockville, Md.), and maintained with L-glutamine-containing RPMI 1640 supplemented with 10% fetal bovine serum (FBS), 0.25% glucose, 0.01% sodium pyruvate, 50 μM 2-mercaptoethanol, and 0.1 ml/ml penicillin/streptomycin/L-glutamine. Differentiation of THP-1 monocytes into macrophages was carried out by exposure to PMA (50 nM) in the aforementioned RPMI 1640 medium for 24 h. Colon-26 (C-26) adenocarcinoma cells were provided by a researcher at The Ohio State University. The C-26 cells were maintained in RPMI 1640 medium supplemented with 5% FBS and 1% penicillin/streptomycin.
Western blotting. THP-1 cells were lysed in SDS-sample buffer after washing with iced-PBS buffer, and then heated at 95° C. for 20 minutes. Protein extracts were prepared using M-PER mammalian protein extraction reagent (Pierce, Rockford, Ill.), containing freshly added 1% phosphatase and protease inhibitor cocktails (Calbiochem). After centrifugation of lysates at 13000 g for 10 min, supernatants were collected, and the protein concentration in each sample was determined by protein assay (Bio-Rad). Protein extracts were then suspended in 2×SDS sample buffer, separated by electrophoresis in 10% SDS-polyacrylamide gels, and transferred to nitrocellulose membranes using a semidry transfer cell. […]

[2] = tested on: LPS-stimulated IL-6 production in THP-1 macrophages; test: ELISA of LPS-stimulated IL-6 production in THP-1 macrophages; format: cell-based, human; details: for first-tier screening result (AMPK/mTOR activation status and IL-6/IL-6 receptor signaling): LPS-stimulated THP-1 macrophages; for inhibition at 10 µM: read-out: inhibition of IL-6 production
Description: as §1
ELISA. IL-6 release by differentiated THP-1 macrophages in response to 10 ng/ml of LPS was analyzed by using the IL-6 ELISA kit (Cayman Chemical Co.; Ann Arbor, Mich.) according to the manufacturer's instruction in triplicate. The effect of each test compound on LPS-stimulated IL-6 release is presented as percent inhibition and was calculated using the following formula: percentage inhibition=100%×{1−[(O.D. of sample−O.D. of control)/(O.D. of LPS−O.D. of control)]}.

AMPK = test: Western blot of AMPK phosphorylation in LPS-treated THP-1 macrophages; format: cell-based, human; details: LPS-treated THP-1, 6 h; AICAR 0.5 mM
Description: Western blotting. THP-1 cells were lysed in SDS-sample buffer after washing with iced-PBS buffer, and then heated at 95° C. for 20 minutes. Protein extracts were prepared using M-PER mammalian protein extraction reagent (Pierce, Rockford, Ill.), containing freshly added 1% phosphatase and protease inhibitor cocktails (Calbiochem). After centrifugation of lysates at 13000 g for 10 min, supernatants were collected, and the protein concentration in each sample was determined by protein assay (Bio-Rad). Protein extracts were then suspended in 2×SDS sample buffer, separated by electrophoresis in 10% SDS-polyacrylamide gels, and transferred to nitrocellulose membranes using a semidry transfer cell. The transblotted membrane was washed twice with Tris-buffered saline containing 0.1% Tween-20 (TBST). After blocking with TBST containing 5% nonfat milk for 1 h, the membrane was incubated with primary antibodies: p172Thr-AMPK, AMPK, p705Tyr-STAT3 and STAT3 (Cell Signaling Technology; Beverly, Mass.); p389Thr-p70S6K and p70S6K (Santa Cruz Biotechnology; Santa Cruz, Calif.), each at 1:1,000 dilution in 1% TBST-nonfat milk at 4° C. overnight. After incubation with the primary antibody, the membrane was washed three times with TBST for a total of 30 min, followed by incubation with horseradish peroxidase-conjugated goat anti-mouse IgG (diluted 1:2500) for 1 h at room temperature. […]

[3] = tested on: Sirt1 gene expression in LNCaP cells; test: Time course of Sirt1 expression in LNCaP cells (Western blot/RT-PCR); format: cell-based; details: OSU-CG12 10 μM, 2-DG 10 mM
Description: Total RNA was isolated from drug-treated LNCaP cells using the RNeasy mini kit (Qiagen, Valencia, Calif.), and then reverse-transcribed to cDNA using the Omniscript RT Kit (Qiagen) according to manufacturer's instructions. PCR products were separated electrophoretically in 1% agarose gels and visualized by ethidium bromide staining.
(§2) Transfections were performed by electroporation using Nucleofector kit R of the Amaxa Nucleofector system (Amaxa Biosystems, Cologne, Germany). LNCaP cells were transfected with the following plasmids or siRNA: WT- and H363Y-Flag-Sirt1 (DN-Sirt1), WT- and K45R-Myc-AMPK (DN-AMPK), GFP-LC3, TSC2 shRNA, and DDIT3 siRNA (GADD153). […] For the fluorescent microscopic analysis, LNCaP cells transfected with the GFP-LC3 expression plasmid or with scrambled or TSC2 shRNA were treated as indicated for 36 h. After cells were fixed with 3.7% formaldehyde at room temperature for 20 min, nuclear counterstaining was performed using a 4,6-diamidino-2-phenylindole (DAPI)-containing mounting medium (Vector Laborotaries, Burlingame, Calif.) before examination. Images were observed using a Nikon microscope (Eclipse TE300).

tumor xenograft = test: Tumor xenograft growth and acute toxicity; details: in vivo
[4] = tested on: MCF-7 breast cancer cells; test: MTT cell viability assay, MCF-7 cells; format: cell-based; details: Homo sapiens, MCF7, 72 h, 10% FBS-supplemented medium, read-out: IC50 in inhibiting the viability of MCF-7 breast cancer cells
Description: (§3) Cell viability was determined using the 3-(4,5-dimethylthiazol-2-yl)-2,5-diphenyltetrazolium bromide) (MTT) assay. LNCaP and MCF-7 cells were seeded in 96-well plates (5000 cells/well) and incubated in their respective culture media supplemented with 10% FBS for 24 h. […] Drug-containing medium was then replaced with 1×MTT (0.5 mg/mL in RPMI 1640), followed by incubation at 37° C. for 2 h. After removal of medium, the reduced MTT dye was solubilized in 200 μL/well DMSO, and absorbances were measured at 570 nm.

[5] = tested on: LNCaP prostate cancer cells; test: MTT cell viability assay, LNCaP cells; format: cell-based; details: Homo sapiens
Description: The compounds were tested for their ability to decrease LNCaP prostate cancer cell viability as measured by the 3-(4,5-dimethylthiazol-2-yl)-2,5-diphenyltetrazolium bromide) (MTT) assay.
as §3

[6] = tested on: [3H]-2-DG uptake into LNCaP cells; test: Glucose uptake assay ([3H]-2-DG); format: cell-based; details: OSU-CG12 at 5 and 10 μM, resveratrol at 50 and 100 μM, P<0.05
Description: After washing cells with PBS, glucose uptake was initiated by addition of 1 mL of PBS containing 1 μCi/mL [^3H]-2-DG (Perkin Elmer, Waltham, Mass.) and […] nonradioactive 2-DG. After 5 min, glucose uptake was terminated by extensive washing with PBS, and cells were solubilized in 0.1% SDS buffer. Aliquots were taken for measurements of radioactivity using a scintillation counter LS6500 (Beckman).

[7] = tested on: conversion of LC3-I to LC3-II in LNCaP cells; test: GFP-LC3 conversion (autophagy) in LNCaP cells; format: cell-based; details: 5 μM, GFP-LC3-transfected LNCaP cells
Description: as §2

[8] = tested on: β-TrCP, Sp1, and androgen receptor (AR) expression in PrECs; test: Western blot of β-TrCP, Sp1 and AR in PrECs; format: cell-based; details: escalating concentrations, 48 h
[9] = tested on: human tumor cell lines of the cancer screening panel; test: NCI60 cell line screening; format: cell-based; details: 48 h, SRB; variety of cancer cell types
Description: The NCI60 screening method was carried out using the following methodology. The human tumor cell lines of the cancer screening panel were grown in RPMI 1640 medium containing 5% fetal bovine serum and 2 mM L-glutamine. The cells were then inoculated into 96 well microtiter plates in 100 μL at plating densities ranging from 5,000 to 40,000 cells/well depending on the doubling time of individual cell lines. After cell inoculation, the microtiter plates are incubated at 37° C., 5% CO2, 95% air and 100% relative humidity for 24 h prior to addition of the thiazolidinedione derivatives. […]
Following drug addition, the plates were incubated for an additional 48 h at 37° C., 5% CO2, 95% air, and 100% relative humidity. […] Bound stain is subsequently solubilized with 10 mM trizma base, and the absorbance was read on an automated plate reader at a wavelength of 515 nm. […] Using the seven absorbance measurements [time zero, (Tz), control growth, (C), and test growth in the presence of drug at the five concentration levels (Ti)], the percentage growth is calculated at each of the drug concentrations levels. Percentage growth inhibition is calculated as: [(Ti−Tz)/(C−Tz)]×100 for concentrations for which Ti>/=Tz [(Ti−Tz)/Tz]×100 for concentrations for which Ti<Tz.
Three dose response parameters were calculated for each experimental agent. […]

IC50 ([2]; Homo sapiens, THP-1, 6 h, 10% FBS-containing medium, read-out: IC50 for inhibition of LPS-stimulated IL-6 production) | SMILES | p-AMPK level in C-26 colon adenocarcinoma cells [1] | potency in blocking IL-6 release ([2]; 1 μM, 6 h, LPS-stimulated THP-1) | first-tier screening result (AMPK/mTOR activation status and IL-6/IL-6 receptor signaling) ([2]; 10 μM) | inhibition at 10 µM ([2]; Homo sapiens, 10 μM, 6 h, LPS-stimulated THP-1) | potency in activating AMPK relative to AICAR (AMPK) | duration of transient transcriptional activation of Sirt1 gene expression [3] | acute toxicity (tumor xenograft) | suppression of tumor xenograft growth (tumor xenograft) | IC50 [4] | inhibition at 10 µM ([2]; Homo sapiens, THP-1, 6 h) | IC50 ([5]; LNCaP, MTT, 72 h, 10% FBS-supplemented medium, read-out: IC50 in inhibiting the viability of LNCaP prostate cancer cells) | IC50 ([5]; summary over LNCaP and MCF-7 cells, read-out: IC50 in suppressing cancer cell growth) | inhibition of glucose uptake [6] | accumulation of LC3-II (autophagy marker) [7] | expression levels of β-TrCP, Sp1, and AR in PrECs [8] | antitumor potency in NCI 60 cell line screening [9]
~1 µM | CC1(CN2C(=O)S/C(=C\c3ccc(NS(=O)(=O)c4ccc([N+](=O)[O-])c(C(F)(F)F)c4)cc3)C2=O)CCCCC1 [Compound 53, N-{4-[3-(1-Methyl-cyclohexylmethyl)-2,4-dioxo-thiazolidin-5-ylidene-methyl]-phenyl}-4-nitro-3-trifluoromethyl-benzenesulfonamide] | robust increases in the p-AMPK level | optimal agent; also recorded: highest potency | active | > 80% | two-orders-of-magnitude higher | – | – | – | – | – | – | – | – | – | – | –
– | CC1(CN2C(=O)S/C(=C\c3ccc(O)c(C(F)(F)F)c3)C2=O)CCCCC1 [OSU-CG12, (Z)-5-(4-Hydroxy-3-trifluoromethyl-benzylidene)-3-(1-methyl-cyclohexylmethy)-thiazolidine-2-4-dione] | – | – | active | – | – | 1 h | without incurring acute toxicity | effectiveness in suppressing tumor xenograft growth | 5 µM | > 80% | 5.7 µM | 5 µM | significantly inhibit glucose uptake | time-dependent accumulation of LC3-II | unaltered expression levels | significantly antitumor potency

From US8383656B2, “Thiazolidinedione energy restriction-mimetic agents” (The Ohio State University Research Foundation, priority 2009, dated 2013)
